The values that follow come from patent publication US20250144250A1, “PH-SENSITIVE FLUOROPHORES” (The General Hospital Corporation, priority 2022, published 2025).

The subject of this test is ID8 cells. The experiment in a line: Subcellular localization (co-localization with MitoTracker, LysoTracker, NucBlue). The conditions noted are these: 10 μM, 30 min incubation. Format: cell-based, murine. The procedure: FIG. 3 Subcellular localization of pH sensing NIR fluorophores: (a) Subcellular localization of each probe (10 μM) in ID8 cells was determined after 30 min of incubation at 37° C. Nuclei, mitochondria, and lysosomes were stained with NucBlue, MitoTracker Green, or LysoTracker Red, respectively. Representative fluorescence images of cells. Scale bar=20 μm. (b) Co-localization index of each probe with MitoTracker Green or LysoTracker Red. The index was calculated by dividing the area of overlap between pH probe and MitoTracker or LysoTracker by the total area of MitoTracker or LysoTracker, respectively. The co-localization index was determined in 5-6 photographic areas (70×92 μm^2 each) for each probe. *P<0.05 by two-way ANOVA followed by Tukey's multiple comparisons test. Error bars show means±s.d.
Live-cell labeling and in vitro imaging: Murine ovarian cancer cells (ID8 cells) were obtained from Dr. Wang's lab in the Vincent Center for Reproductive Biology at Massachusetts General Hospital (MGH). Cells were cultured and maintained in Dulbecco's modified Eagle's medium (DMEM) supplemented with 4% FBS (Gibco, Grand Island, NY), 1% insulin-transferrin-selenium (Sigma-Aldrich), and 1% penicillin-streptomycin (Gibco). Cells were plated in a T-75 culture flask until 70% confluency before dividing for the next passage. For fluorophore binding affinity, ID8 cells were incubated at a density of 20,000 cells/well in a 24-well plate in a humidified incubator at 37° C. under 5% CO2 in the air. Cells were then incubated at 37° C. for 30 min in the presence of 0.2 μM of PH03 or PH08 and phenol red-free Hank's balanced salt solution (HBSS) with or without 10% FBS. […] Image acquisition and analysis were performed using IPLab software (Scanalytics, Fairfax, VA), and the fluorescent intensity of each cell was measured using ImageJ (National Institutes of Health, Bethesda, MD). The outline of each cell was determined on a phase-contrast image to specify the region of interest (ROI) and superimposed on a fluorescence image for measurements. All NIR fluorescence images for each fluorophore were normalized identically for all conditions during an experiment. […]
Subcellular distribution of pH sensing NIR fluorophores: To investigate the fate of the NIR fluorophores after uptake by cells, we performed in vitro live-cell imaging and evaluated subcellular localization of the NIR fluorophores in cultured ID8 ovarian cancer cells. PH03 and PH08 were incubated with ID8 cells for 30 min followed by double staining with commercially available MitoTracker or LysoTracker Green and imaged under the house-built NIR fluorescence microscope. […]

`CCN1/C(=C/C=C2\CCCC(/C=C/C3=[N+](CC)c4ccccc4C3(C)C)=C2c2ccccc2)C(C)(C)c2ccccc21` [PH03, 1-Ethyl-2-((E)-2-((E)-6-(2-((E)-1-ethyl-3,3-dimethylindolin-2-ylidene)ethylidene)-3,4,5,6-tetrahydro-[1,1′-biphenyl]-2-yl)vinyl)-3,3-dimethyl-3H-indol-1-ium iodide]: the “overlap of fluorescence signal with LysoTracker (lysosome)” value came out at 34.93% and the “overlap of fluorescence signal with MitoTracker (mitochondria)” value was 91.47%.
Regarding `CCN1/C(=C/C=C2\CCCC(/C=C/C3=[N+](CC)c4ccccc4C3(C)C)=C2N2CCNCC2)C(C)(C)c2ccccc21` [PH08], the “overlap of fluorescence signal with LysoTracker (lysosome)” value is recorded as 71.83% and the “overlap of fluorescence signal with MitoTracker (mitochondria)” value was found to be 83.05%.
